Measurements taken from the NIST ThermoML archive (doi:10.1007/s10765-011-0989-8).

Conditions: 101 kPa, Liquid; for viscosity: Capillary tube (Ostwald / Ubbelohde) method; for mass density: Pycnometric method

CO [methanol]
Conditions | mass density [kg/m3] | viscosity [mPa·s]
293.15 K | 791 | 0.595
298.15 K | 786.4 | 0.552
303.15 K | 781.8 | 0.514
308.15 K | 777.2 | 0.478
313.15 K | 771.8 | 0.449
323.15 K | 762.3 | 0.394
333.15 K | 752.4 | 0.349
